Assay results from publication PMC12566046, “Arylpiperazinyl-Benzocycloheptapyrrole-Carboxamides Endowed with Dual Anticancer and Antiviral Activities” (Molecules, 2025).
Read-outs that look alike come from different tables or passages of the source.

Tests used:
[1] = system: K-562 (leukemia cell line); experiment: NCI-60 single-dose assay; assay type: cell-based; conditions: Homo sapiens, K562, read-out: growth inhibition (GI%) and cytotoxicity (negative values)
Excerpt: (§1) We first evaluated the cytotoxic activity of tricyclic-pyrrole carboxamides 1–20 using the NCI-60 cell line panel, representing nine different human cancers: leukemia, melanoma, and cancers of the lung, colon, central nervous system (CNS), ovary, kidney, prostate, and breast (the one-dose graph for compounds 1–20 is reported in Supplementary Materials, Figures S43–S62). Compounds 1, 5, 10, 11, 17, and 20 satisfied pre-determined threshold inhibition criteria in a minimum number of cell lines; therefore, they were also tested in the full five-dose assay (Figures S63–S68 in the Supplementary Materials).

[2] = system: SK-MEL-5 (melanoma cell line); experiment: NCI-60 single-dose assay; assay type: cell-based, human; conditions: Homo sapiens, SK-MEL-5, read-out: growth inhibition (GI%) and cytotoxicity (negative values)
Excerpt: as §1

[3] = system: ZIKV, strain Brazil/2016/INMI1; experiment: ZIKV viral yield reduction assay on Huh-7 cells; assay type: cell-based, Zika virus; conditions: for EC50: Zika virus
Description: We developed a protocol to screen the potential antiviral activity of compounds 1–20 against ZIKV (strain Brazil) on Huh-7 cells, against an H1N1 IAV strain (PR/8/1934) on MDCK cells, and against SARS-CoV-2 (strain Milano) on Vero-TMPRSS. Each compound was tested in duplicate at concentrations of 50 μM, 5 μM, and 0.5 μM. Treatment was applied immediately after infection, and at 24–48 h post-infection, supernatants were collected to assess viral yield, determined as PFU/mL for ZIKV and SARS-CoV-2 or as TCID50/mL for IAV. The test allowed us to evaluate both the antiviral action and the cytotoxicity of each compound, comparing them with reference compounds, such as sofosbuvir for ZIKV and EIDD-1931 for IAV and SARS-CoV-2 (Supplementary Materials, Figures S87–S89).
Viral yield reduction assays for ZIKV and SARS-CoV-2 were performed as previously described by Plicanti. Briefly, 1 × 10^4 Huh-7 cells/well and 1.2 × 10^4 VERO TMPRSS cells/well were infected with ZIKV (MOI 1) or SARS-CoV-2 (MOI 0.05) in a primary 96-well plate for 2 h at 37 °C, 5% CO2. […] Supernatants were collected after 48 h (Huh-7) or 24 h (VERO TMPRSS), diluted 3-fold, and added onto VERO E6 or VERO TMPRSS monolayers, respectively. After 2 h at 37 °C, the inoculum was replaced with 0.75% carboxymethyl cellulose (Merck®, Darmstadt, Germany) in DMEM 2% FBS. After 48–72 h, cells were then fixed with 4% buffered formalin solution (Merck®, Darmstadt, Germany) and stained with 1% crystal violet (Merck®, Darmstadt, Germany). Titres and percentage of inhibition were calculated as follows:
PFU/mL = number of plaques*3^n/vol infection, where n is the dilution where plaques were counted:% inhibition = 100 × (1 − Titre-compound/Titre-untreated control) where Titre-compound and Titre-untreated control are the titres (PFU/mL) obtained on cells treated with compound or DMSO, respectively.
SI was obtained by dividing CC50 by EC50 for each drug/virus/cell line. Compounds with SI values ≥ 10 were active in vitro.

[4] = system: SARS-CoV-2 VR PV10734 (strain Milano); experiment: microbe, parasite or virus in culture; assay type: cell-based
[5] = in vitro; conditions: dog
[6] = in vitro; conditions: African green monkey
[7] = Cytotoxicity on uninfected Huh-7 cells (WST-8, crystal violet); conditions: human, uninfected Huh-7 cells
[8] = system: CCRF-CEM (leukemia cell line); experiment: NCI-60 single-dose assay; assay type: cell-based, human; conditions: Homo sapiens, read-out: growth inhibition (GI%) and cytotoxicity (negative values)
Excerpt: as §1

[9] = system: COLO 205 (colon cancer cell line); experiment: NCI-60 single-dose assay; assay type: cell-based, human; conditions: Homo sapiens, COLO 205, read-out: growth inhibition (GI%) and cytotoxicity (negative values)
Excerpt: as §1

[10] = system: HCC-2998 (colon cancer cell line); experiment: NCI-60 single-dose assay; assay type: cell-based, human; conditions: Homo sapiens, HCC 2998, read-out: growth inhibition (GI%) and cytotoxicity (negative values)
Excerpt: as §1

[11] = system: HCT-116 (colon cancer cell line); experiment: NCI-60 single-dose assay; assay type: cell-based, human; conditions: Homo sapiens, HCT-116, read-out: growth inhibition (GI%) and cytotoxicity (negative values)
Excerpt: as §1

[12] = system: HCT-15 (colon cancer cell line); experiment: NCI-60 single-dose assay; assay type: cell-based, human; conditions: Homo sapiens, HCT-15, read-out: growth inhibition (GI%) and cytotoxicity (negative values)
Excerpt: as §1

[13] = system: HL-60(TB) (leukemia cell line); experiment: NCI-60 single-dose assay; assay type: cell-based, human; conditions: Homo sapiens, HL-60, read-out: growth inhibition (GI%) and cytotoxicity (negative values)
Excerpt: as §1

[14] = system: HT29 (colon cancer cell line); experiment: NCI-60 single-dose assay; assay type: cell-based, human; conditions: Homo sapiens, HT-29, read-out: growth inhibition (GI%) and cytotoxicity (negative values)
Excerpt: as §1

[15] = system: KM12 (colon cancer cell line); experiment: NCI-60 single-dose assay; assay type: cell-based, human; conditions: Homo sapiens, KM12, read-out: growth inhibition (GI%) and cytotoxicity (negative values)
Excerpt: as §1

[16] = system: MCF-7 (breast cancer cell line); experiment: NCI-60 single-dose assay; assay type: cell-based, human; conditions: Homo sapiens, MCF7, read-out: growth inhibition (GI%) and cytotoxicity (negative values), MCF-7, 10^−5 M
Excerpt: as §1

[17] = system: MOLT-4 (leukemia cell line); experiment: NCI-60 single-dose assay; assay type: cell-based, human; conditions: Homo sapiens, MOLT-4, read-out: growth inhibition (GI%) and cytotoxicity (negative values)
Excerpt: as §1

[18] = system: RPMI-8226 (leukemia cell line); experiment: NCI-60 single-dose assay; assay type: cell-based, human; conditions: Homo sapiens, RPMI-8226, read-out: growth inhibition (GI%) and cytotoxicity (negative values)
Excerpt: as §1

[19] = system: SR (leukemia cell line); experiment: NCI-60 single-dose assay; assay type: cell-based, human; conditions: Homo sapiens, read-out: growth inhibition (GI%) and cytotoxicity (negative values)
Excerpt: as §1

[20] = system: SW-620 (colon cancer cell line); experiment: NCI-60 single-dose assay; assay type: cell-based, human; conditions: Homo sapiens, SW-620, read-out: growth inhibition (GI%) and cytotoxicity (negative values)
Excerpt: as §1

[21] = system: NCI-60 cell line panel; experiment: NCI-60 single-dose assay, whole panel; assay type: cell-based, human; conditions: summary over the panel
Excerpt: as §1

[22] = in vitro; conditions: human
[23] = system: M14 (melanoma cell line); experiment: NCI-60 single-dose assay; assay type: cell-based, human; conditions: Homo sapiens, M14, read-out: growth inhibition (GI%) and cytotoxicity (negative values)
Excerpt: as §1

[24] = system: NCI-H460 (non-small cell lung cancer cell line); experiment: NCI-60 single-dose assay; assay type: cell-based, human; conditions: Homo sapiens, NCI-H460, read-out: growth inhibition (GI%) and cytotoxicity (negative values)
Excerpt: as §1

[25] = system: IAV strain A/PR/8/34 (H1N1)
[26] = system: Vero TMPRSS cells
[27] = system: MDCK cells; experiment: Cytotoxicity on uninfected MDCK cells (WST-8, crystal violet)
[28] = preliminary screening (50, 5, 0.5 μM), Huh-7, read-out: ZIKV/Huh‐7 EC50
[29] = Severe acute respiratory syndrome coronavirus 2, preliminary screening (50, 5, 0.5 μM), Vero TMPRSS, read-out: SARS‐CoV‐2/Vero TMPRSS EC50
[30] = Huh-7, read-out: ZIKV/Huh‐7 EC50

Structure (SMILES) | inhibition at 10 µM [1] | inhibition at 10 µM [2] | EC50 [3, 28] | EC50 [4, 29] | CC50 [5] | CC50 at 24 h [6] | CC50 at 48 h [7] | inhibition at 10 µM [11] | EC50 [3, 30] | growth inhibition (GI%) reached against cancer cell lines of the NCI-60 panel [21] | further results
N#Cc1ccccc1N1CCN(CCNC(=O)c2[nH]c3c(c2Cl)CCCc2ccccc2-3)CC1 [Compound 8, 3-Chloro-N-(2-(4-(2-cyanophenyl)piperazin-1-yl)ethyl)-1,4,5,6-tetrahydrobenzo[6,7]cyclohepta[1,2-b]pyrrole-2-carboxamide] | 62.4% | 75.3% | 2.87 µM | 58.4 µM | 119 µM | 67.5 µM | 50.6 µM | – | – | – | –
COc1cccc(N2CCN(CCNC(=O)c3c(Cl)[nH]c4c3CCCc3ccccc3-4)CC2)c1 [Compound 16] | 77.6% | 88.6% | – | – | 42.9 µM | 50.2 µM | – | < 60% | – | – | inhibition at 10 µM [8]: < 60%; inhibition at 10 µM [9]: < 60%; inhibition at 10 µM [10]: < 60%; inhibition at 10 µM [12]: < 60%; inhibition at 10 µM [13]: < 60%; inhibition at 10 µM [14]: 74.9%; inhibition at 10 µM [15]: < 60%; inhibition at 10 µM [16]: 73%; inhibition at 10 µM [17]: < 60%; inhibition at 10 µM [18]: 60%; inhibition at 10 µM [19]: 73.6%; inhibition at 10 µM [20]: < 60%
O=C(NCCN1CCN(c2ccccc2Cl)CC1)c1[nH]c2c(c1Cl)CCCc1ccccc1-2 [Compound 4] | – | – | – | 42.5 µM | 14.7 µM | 57.9 µM | 59.9 µM | – | 4.39 µM | – | inhibition at 10 µM [16]: 60%
O=C(NCCN1CCN(c2ccc(Cl)cc2)CC1)c1[nH]c2c(c1Cl)CCCc1ccccc1-2 [Compound 3] | – | – | 3.24 µM | – | – | 143 µM | 62.6 µM | – | – | < 60% | –
CC(C)OC(=O)[C@H](C)N[P@](=O)(OC[C@H]1O[C@@H](n2ccc(=O)[nH]c2=O)[C@](C)(F)[C@@H]1O)Oc1ccccc1 [sofosbuvir, reference compound] | – | – | 2.07 µM | – | – | – | 300 µM | – | – | – | selectivity index (SI) ([3]; ZIKV, Huh-7 cells, CC50/EC50): 178.32; EC50 ([3]; ZIKV, Huh-7 cells, 48 h, full dose-response, read-out: EC50): 1.47 µM; CC50 [22]: 262 µM
O=C(NCCN1CCN(c2ccc(Cl)c(Cl)c2)CC1)c1[nH]c2c(c1Cl)CCCc1ccccc1-2 [Compound 9] | – | – | 3.24 µM | – | – | 67.7 µM | 65.5 µM | – | – | < 60% | –
COc1cccc(N2CCN(CCNC(=O)c3[nH]c4c(c3Cl)CCCc3ccccc3-4)CC2)c1 [Compound 6] | – | – | – | – | 66 µM | 121 µM | 53.5 µM | 64% | 3.24 µM | – | –
O=C(NCCN1CCN(c2ccccc2)CC1)c1[nH]c2c(c1Cl)CCCc1ccccc1-2 [Compound 2, 3-Chloro-N-(2-(4-phenylpiperazin-1-yl)ethyl)-1,4,5,6-tetrahydrobenzo[6,7]cyclohepta[1,2-b]pyrrole-2-carboxamide] | – | – | 43.9 µM | – | – | – | < 50 µM | – | – | < 60% | –
CCOc1ccccc1N1CCN(CCNC(=O)c2[nH]c3c(c2Cl)CCCc2ccccc2-3)CC1 [Compound 7] | 82.6% | 77.7% | – | 37.3 µM | 5.6 µM | 38.5 µM | 50.7 µM | 76.1% | 3.82 µM | – | inhibition at 10 µM [8]: < 60%; inhibition at 10 µM [9]: 88.8%; inhibition at 10 µM [10]: < 60%; inhibition at 10 µM [12]: 82.1%; inhibition at 10 µM [13]: < 60%; inhibition at 10 µM [14]: 72.7%; inhibition at 10 µM [15]: < 60%; inhibition at 10 µM [23]: 88.6%; inhibition at 10 µM [17]: 66.5%; inhibition at 10 µM [24]: 60.8%; inhibition at 10 µM [18]: 63.4%; inhibition at 10 µM [19]: 70%; inhibition at 10 µM [20]: < 60%
O=c1nc(NO)ccn1[C@@H]1O[C@H](CO)[C@@H](O)[C@H]1O [EIDD-1931, reference compound] | – | – | – | – | – | – | – | – | – | – | EC50 ([4]; SARS-CoV-2, VERO TMPRSS cells, 24 h, full dose-response, read-out: EC50): 0.05 µM; EC50 ([4]; preliminary screening (50, 5, 0.5 μM), Vero TMPRSS, read-out: SARS‐CoV‐2/Vero TMPRSS EC50): 0.11 µM; EC50 ([25]; IAV, MDCK cells, 48 h, full dose-response): 0.39 µM; IAV/MDCK SI ([25]; preliminary screening): < 24.15; EC50 ([25]; read-out: IAV/MDCK EC50, preliminary screening (50, 5, 0.5 μM), MDCK): 2.07 µM; CC50 ([26]; VERO TMPRSS cells, 24 h, full dose-response): 22.2 µM; CC50 ([26]; read-out: SARS‐CoV‐2/Vero TMPRSS CC50, preliminary screening (50, 5, 0.5 μM), Vero TMPRSS): 13.4 µM; CC50 ([27]; MDCK cells, 48 h, full dose-response): 138 µM; CC50 ([27]; read-out: IAV/MDCK CC50, preliminary screening (50, 5, 0.5 μM), MDCK): < 50 µM
